Where “and” joins values, the source holds several entries; their conditions need not be identical. Equal entries are not always repeated. Where two headings read alike, the source gives them in different places. Marks after values point to notes of the source that are not given here.
Assays:
[1] = ref Serra et al. 23, cited from earlier work
[2] = healthy volunteers, ref Goldberg et al. 26, cited from earlier work; for AUC: 10 Kalamata olives
[3] = Plasma pharmacokinetics (noncompartmental analysis) after single oral administration of Arbequina table olives; assay type: in vivo, Sprague-Dawley rats; details: for Cmax/D: D = dose of hydroxytyrosol in nmol; for AUC0–∞/D / AUCt/D: D in nmol; for AUCt: time zero up to 8 h; for Tmax: median (min, max); for k el: read-out: λz (apparent elimination rate constant) (converted); for Cmax: read-out: Peak plasma concentration (Cmax), text value with ± spread
Procedure: The experiments were performed using Sprague–Dawley rats (n = 13) randomly divided into two groups, the 30 olives group (n = 6) that received the dose of 3.85 g/kg and the 60 olives group (n = 7), which was given the dose of 7.70 g/kg. The freshly prepared homogeneous suspensions were given to overnight fasted rats by oral gavage (18-gauge × 76 mm, ref FFSS-186-76, Instech Laboratories, Inc., Plymouth Meeting, PA). The volume of administration was 10 mL/kg. After the single administration of Arbequina table olives, blood was obtained at 30, 60, 90, 120, 240, 360, and 480 min from each animal. Samples were withdrawn from the lateral saphenous vein and placed into Microvette CB 300 K2 EDTA-K2 (Sarstedt, Granollers, Spain) coated tubes.[31] At each time point, 0.40 mL of blood was collected, meaning that a maximum of 2.4 mL was obtained from each animal. […] Blood corresponding to 480 min was taken by a cardiac puncture with the animal under terminal anesthesia. Plasma was immediately obtained by centrifugation at 1500g at 4 °C for 15 min (Centrifuge Megafuge 1.0R, Heraeus, Boadilla, Spain) and kept at −20 °C until analysis.
Hydroxytyrosol and its metabolites in plasma were determined by liquid–liquid extraction followed by LC-MS/MS analysis as previously described.[11] Briefly, 200 μL of plasma was mixed with 10 μL of freshly prepared 10% ascorbic acid followed by 10 μL of 0.5% acetic acid and 10 μL of 2-(3-hydroxyphenyl) ethanol (10 μM, I.S.). Then, 2 mL of ethyl acetate was added to the samples that were vigorously mixed in a vortex (5 min), placed into an ultrasonic bath (10 min), and centrifuged at 1500g at 4 °C (15 min) (Centrifuge Megafuge 1.0R). A second extraction of the pellet with 2 mL of ethyl acetate was carried out. Subsequently, the two pooled supernatants were evaporated to dryness, reconstituted with 100 μL of 80% methanol, placed into amber vials, and immediately analyzed by LC-MS/MS.
The plasmatic concentrations were calculated by the interpolation of the peak area ratio of hydroxytyrosol versus I.S. on a calibration curve. Calibration standards were constructed with blank plasma obtained by cardiac puncture from overnight fasted rats that had never received either table olives or hydroxytyrosol. […] Results were expressed in nmol per liter of plasma (nmol/L). The method was validated following the EMA guidelines[33] at six different concentrations ranging from 0 to 250 nmol/L analyzed on three different days.
Individual PK of hydroxytyrosol and its metabolites were estimated from the plasma concentrations versus time profiles of each animal, through a noncompartmental analysis (NCA) with Phoenix-64 (Build 8.3.4.295, Certara, Princeton, N.J., USA). All concentrations of each pharmacokinetic profile were considered for NCA because the values obtained were above the LOQ. Peak plasma concentration (Cmax) and time to peak plasma concentration (Tmax) were determined by visual inspection of the pharmacokinetic profiles. The apparent elimination rate constant (λz) was estimated from the terminal slope of the semilogarithmic concentration–time curve. The apparent elimination half-life (t1/2λz) was calculated as t1/2z = 0.693/λz. The area under the plasma concentration–time curve from time zero to the last experimental time (AUCt) with analyte concentrations above the LOQ, was calculated by the linear-log trapezoidal rule. The area from time zero to infinity (AUC0–∞) was calculated by adding to the AUCt value the extrapolated area calculated as the ratio between the predicted concentration (Ct) at the last sampling time with concentrations above the LOQ and λz. The mean residence time (MRT0–∞) was given by the ratio of the area under the first-moment curve (AUMC0–∞) to the area under the zero-moment curve (AUC0–∞). The ratio indicating the relative exposure of each metabolite with respect to hydroxytyrosol (AUC0–∞m/AUC0–∞) was also calculated for all of the metabolites. […]

[4] = 30 olives group (hydroxytyrosol 2.95 mg/kg oral), geometric mean (95% CI)
[5] = 60 olives group (hydroxytyrosol 5.89 mg/kg oral), geometric mean (95% CI)

Cmax/D [3, 4]: 0.0044 (0.0026, 0.0077)^a
AUC0–∞/D [3, 4]: 0.8149 (0.7420, 0.8949)^a
AUCt/D [3, 4]: 0.6383 (0.5153, 0.7907)^a
Vss/F (apparent steady-state volume of distribution) [3, 4]: 1139 (671.4, 1932)^a L/kg
AUCt [3, 4]: 3363 (2642, 4280)a min·nmol/L
Cmax/D [3, 5]: 0.0039 (0.0028, 0.0053)^a
AUC0–∞/D [3, 5]: 0.7993 (0.6170, 1.035)^a
AUCt/D [3, 5]: 0.7091 (0.5407, 0.9300)^a
Vss/F (apparent steady-state volume of distribution) [3, 5]: 882.8 (674.2, 1161)^a L/kg
Tmax ([3]; 60 olives group (hydroxytyrosol 5.89 mg/kg oral)): 41 (33, 68)^a min
AUCt [3, 5]: 7912 (6031, 10381)^b min·nmol/L
half-life ([3]; Sprague-Dawley, rat, plasma, oral, both doses, assuming first-order absorption, read-out: absorption half-life inferred from Cmax/AUC): 2.1 to 2.4 h
CL/F ([3]; Sprague-Dawley, rat, plasma, oral, both doses, read-out: Cl/F): ~258 L/h/kg
Vd/F ([3]; Sprague-Dawley, rat, plasma, oral, both doses, read-out: Vss/F or Vdarea/F): ~1000 L/kg
Vd/F ([3]; Sprague-Dawley, rat, plasma, po, 2.95 mg/kg, 30 olives group (hydroxytyrosol 2.95 mg/kg oral), geometric mean (95% CI), read-out: Vdarea/F (apparent volume of distribution, terminal phase)): 1070 L/kg
Vd/F ([3]; Sprague-Dawley, rat, plasma, po, 2.95 mg/kg, 30 olives group (hydroxytyrosol 2.95 mg/kg oral), geometric mean (95% CI), read-out: Vss/F (apparent steady-state volume of distribution)): 1140 L/kg
half-life ([3]; Sprague-Dawley, rat, plasma, po, 2.95 mg/kg, 30 olives group (hydroxytyrosol 2.95 mg/kg oral), geometric mean (95% CI), read-out: t1/2λz (apparent elimination half-life)): 2.77 h
Tmax ([3]; Sprague-Dawley, rat, plasma, po, 2.95 mg/kg, 30 olives group (hydroxytyrosol 2.95 mg/kg oral), read-out: Tmax (converted)): ~1 h
Vd/F ([3]; Sprague-Dawley, rat, plasma, po, 5.89 mg/kg, 60 olives group (hydroxytyrosol 5.89 mg/kg oral), geometric mean (95% CI), read-out: Vdarea/F (apparent volume of distribution, terminal phase)): 678 L/kg
Vd/F ([3]; Sprague-Dawley, rat, plasma, po, 5.89 mg/kg, 60 olives group (hydroxytyrosol 5.89 mg/kg oral), geometric mean (95% CI), read-out: Vss/F (apparent steady-state volume of distribution)): 883 L/kg
half-life ([3]; Sprague-Dawley, rat, plasma, po, 5.89 mg/kg, 60 olives group (hydroxytyrosol 5.89 mg/kg oral), geometric mean (95% CI), read-out: t1/2λz (apparent elimination half-life)): 1.83 h
Tmax ([3]; Sprague-Dawley, rat, plasma, po, 5.89 mg/kg, 60 olives group (hydroxytyrosol 5.89 mg/kg oral), read-out: Tmax (converted)): ~0.667 h
half-life ([3]; Sprague-Dawley, rat, plasma, po, both doses (30 and 60 olives groups), oral table olives, read-out: half-life (t1/2λz) (converted)): ~2.5 h
CL/F ([3]; Sprague-Dawley, rat, plasma, 30 olives group (hydroxytyrosol 2.95 mg/kg oral), geometric mean (95% CI), read-out: Cl/F (apparent clearance)): 268 L/h/kg
MRT inf ([3]; Sprague-Dawley, rat, plasma, 30 olives group (hydroxytyrosol 2.95 mg/kg oral), geometric mean (95% CI), read-out: MRT0–∞ (converted)): 4.26 h
k el ([3]; Sprague-Dawley, rat, plasma, 30 olives group (hydroxytyrosol 2.95 mg/kg oral), geometric mean (95% CI)): 7e-05 s⁻¹
Cmax ([3]; Sprague-Dawley, rat, plasma, 30 olives group (hydroxytyrosol 2.95 mg/kg oral)): 23.4 ± 1.68 nM
CL/F ([3]; Sprague-Dawley, rat, plasma, 60 olives group (hydroxytyrosol 5.89 mg/kg oral), geometric mean (95% CI), read-out: Cl/F (apparent clearance)): 257 L/h/kg
MRT inf ([3]; Sprague-Dawley, rat, plasma, 60 olives group (hydroxytyrosol 5.89 mg/kg oral), geometric mean (95% CI), read-out: MRT0–∞ (converted)): 3.44 h
k el ([3]; Sprague-Dawley, rat, plasma, 60 olives group (hydroxytyrosol 5.89 mg/kg oral), geometric mean (95% CI)): 0.000105 s⁻¹
Cmax ([3]; Sprague-Dawley, rat, plasma, 60 olives group (hydroxytyrosol 5.89 mg/kg oral)): 43 ± 1.39 nM
MRT inf ([3]; Sprague-Dawley, rat, plasma, both doses (30 and 60 olives groups), oral table olives, read-out: mean residence time (MRT0–∞)): ~4 h
PK behaviour between doses (dose linearity) ([3]; between doses of 2.95 and 5.85 mg hydroxytyrosol/kg, noncompartmental analysis): linear PK
percentage of the AUC of each compound divided by the AUC of the sum of all of them ([3]; both doses (similar ratios between doses), plasma): 11%
SMILES: OCCc1ccc(O)c(O)c1 [hydroxytyrosol]
share in rat plasma ([1]; after phenolic extract from olive cake containing 10.35 mg/kg of hydroxytyrosol): 6%
Tmax ([1]; sampling times limited to 1, 2 and 4 h): 2 h
Cmax ([2]; 10 Kalamata olives with 389.87 mg hydroxytyrosol/kg, parent compound): 0.64 nM
AUC ([2]; converted unit): 0.65 nM·h
AUC [2]: 0.65 nM·h
AUC0–∞ ([3]; 30 olives group (3.85 g olives/kg, hydroxytyrosol 2.95 mg/kg oral), geometric mean (95% CI)): 4293 min·nmol/L and 4293 (3815, 4830)^a min·nmol/L
AUC0–∞ ([3]; 60 olives group (7.70 g olives/kg, hydroxytyrosol 5.89 mg/kg oral), geometric mean (95% CI)): 8919 min·nmol/L and 8919 (6920, 11495)^b min·nmol/L

Source: paper PMC10835732, “Pharmacokinetics of Hydroxytyrosol and Its Sulfate and Glucuronide Metabolites after the Oral Administration of Table Olives to Sprague-Dawley Rats” (Journal of Agricultural and Food Chemistry, 2024)
